The values below are quoted from earlier work in patent US20230285491A1, “COMPOSITION FOR PREVENTION OF DUMPING SYNDROME IN A POST-BARIATRIC SURGERY SETTING” (METAGENICS, INC., priority 2020, published 2023).

This data set has as its target T1, GLP-1 receptor (Homo sapiens, UniProt P43220).
T1 construct: GLP-1 receptor antagonism prevented hypoglycemia in all patients and reversed neuroglycopenic symptoms; host or cells: gastric bypass patients (in vivo, endogenous receptor)
As to conditions: gastric bypass patients.

T1 sequence (P43220 24-463): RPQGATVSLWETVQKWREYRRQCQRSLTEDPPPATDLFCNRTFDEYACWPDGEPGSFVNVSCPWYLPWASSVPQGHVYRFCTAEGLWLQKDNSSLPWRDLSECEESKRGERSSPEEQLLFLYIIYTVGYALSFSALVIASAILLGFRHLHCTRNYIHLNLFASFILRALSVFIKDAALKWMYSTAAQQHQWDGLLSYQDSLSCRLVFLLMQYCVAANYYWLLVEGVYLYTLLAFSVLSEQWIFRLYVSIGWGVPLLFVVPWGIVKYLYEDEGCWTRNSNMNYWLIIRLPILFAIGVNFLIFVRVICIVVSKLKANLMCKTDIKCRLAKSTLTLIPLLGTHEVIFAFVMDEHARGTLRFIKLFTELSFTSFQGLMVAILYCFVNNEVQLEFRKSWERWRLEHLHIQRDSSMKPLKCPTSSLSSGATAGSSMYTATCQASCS

Exendin-(9-39): the “effect on postprandial hypoglycemic and hyperinsulinemic events” value was “corrected postprandial hypoglycemic and hyperinsulinemic events”.
